We go through three compounds from patent US20220030866A1, “CONJUGATES OF AUXIN ANALOGS” (The State of Israel, Ministry of Agriculture & Rural …, priority 2019, published 2022).

Assay [1] has as its system cuttings from mature Eucalyptus grandis trees. The assay is described as follows: rooting of cuttings from mature Eucalyptus grandis trees. The assay is classed as in vivo. The procedure, abridged: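 Cuttings (12-15 cm, two upper leaves halved) from branches of 8-year-old net-house plants; bases dipped 1 min in 6000 ppm IBA potassium salt plus 50 μM conjugate, leaves sprayed with 50 μM conjugate in 0.5% Triton X-100. Rooted at 25° C, 90% humidity, peat:vermiculite:polystyrene 1:2:3; rooting scored after 30-60 days.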

Assay [2] has as its system Arabidopsis seedlings. In words: root elongation inhibition in Arabidopsis seedlings. The assay is classed as in vivo. The conditions noted are these: for effect on root elongation relative to control, in words: after 5 days. The method, then: (§1) Adventitious roots (ARs) were induced in intact plants, using previously described procedures [Gutierrez et al., Plant Cell 2009, 21:3119-3132; Abu-Abied et al., Plant J 2012, 71:787-799; Rasmussen et al., Plant Physiol 2012, 158:1976-1987]. Briefly, seeds were germinated on MS/0.8% agar plates supplemented with 3% sucrose. The plates were kept in the dark for 2 days at 4° C., then 5 days at 22° C. in the dark, 2 days in the light, 3 days in the dark and then additional 4 days in the light to complete 2 weeks when roots were counted using a stereoscope. Sensitivity to auxin and/or auxin analogs was determined by following root elongation on vertical plates. The 4-day-old seedlings were transferred to MS plates containing 0.05 or 0.5 μM IAA and the root length was measured after 5 days, including the number of LRs in each root and calculation of the LR density. Each treatment experiment included 10-15 plants and was repeated 3 times.
A common technique for evaluating auxin activity is by determining the ability of a compound to inhibit root elongation [Zolman et al., Genetics 2000, 156:1323-1337]. In order to use this assay for comparing auxin activities of different conjugates, the minimum concentration of free 4-CPA that is active in the root elongation inhibition assay was determined. Four days old seedlings were placed in vertical plates containing increasing concentrations of 4-CPA. The root lengths were marked daily during 5 days.
Based on the above results, the effect of conjugates of 4-CPA (Compounds 1o-1t) on root elongation after 5 days was determined at concentrations of 50 nM.

In another assay the test system is mung bean cuttings. The assay is described as follows: rooting of mung bean cuttings (number of adventitious roots per cutting). The format is in vivo. The following applies: for rooting of mung bean cuttings (number of roots per cutting): 50 μM. The procedure, abridged:
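Readout was the number of adventitious roots per cutting in mung bean cuttings. Conjugates of 4-CPA, MCPA and 2-DP were tested alongside unconjugated IBA and 2-DP–glycine methyl ester.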

Another assay deals with DR5:venus marker. In words: auxin activity by DR5:venus fluorescence in Arabidopsis plants. The following applies: 10 μM. The format is in vivo. As for the experimental part:
Imaging was performed using an SP8 Leica confocal microscope including solid-state lasers producing 405, 488, 514 and 552 nm light, and hybrid or PMT detectors. Objectives were either PL APO 20×/0.75, WD 0.62 mm or PL APO 63×/1.2 WD 0.3 mm. For fluorescence measurements, the Imaris™ spot detection option (Bitplane A.G.) was used to segment nuclei and calculate the average signal intensity.
One technique for assessing auxin activity of the 4-CPA amino acid conjugates utilized plants expressing nucleus-localized, fluorescent DR5:venus marker, the expression level of which is an indicator of intracellular auxin activity [Laskowski et al., PLoS Biol 2008, 6:e307]. Four days old seedlings grown on regular MS medium were transferred to plates containing 10 μM of the tested compounds and fluorescence was inspected by confocal microscope after 24 hours.
In order to assess the ability of the abovementioned sodium salts to penetrate the cells and activate an auxin response, an Arabidopsis DR5-Venus model was utilized (as described hereinabove). The plants were exposed to 10 μM of each compound for 24 hour; MS medium was used as a negative control, and the related Compounds 1p, 1r and 1t were used as positive controls.

Assay [3] concerns Arabidopsis seedlings. In words: split petri dish assay, separate shoot or root application in etiolated Arabidopsis seedlings. The assay is classed as in vivo. The conditions noted are these: 10 μM. From the text: The observation that AR enhancement in Eucalyptus cuttings was higher when 4-CPA conjugates were applied also to the leaves (as described in Example 3) prompted further investigation into the functions of shoot-derived 4-CPA. To this end, 4-CPA or Compounds 1p and it were applied specifically to roots or shoots of five-day old etiolated Arabidopsis seedlings using a split petri dish (as depicted in FIG. 26) and the effect on root elongation, lateral root (LR) formation and adventitious root (AR) formation was evaluated.
Arabidopsis plants were germinated and grown in the dark for 5 days, then then transferred to petri dishes with a partition in the middle. Each half of these plates contained either medium alone or with 10 μM of 4-CPA or Compound 1p or 1tl. The etiolated seedlings were put on the plates with their collet region on the partition such that either the hypocotyl and cotyledons, or the root or both were in touch with the medium containing the tested compound. Adventitious roots and lateral roots were counted and the length of the primary root was measured after a week.

The test system of assay [4] is Arabidopsis seedlings. The assay is described as follows: adventitious root formation in intact etiolated Arabidopsis seedlings. The conditions noted are these: intact etiolated seedlings; 50 nM, FIG. 17 legend 10 μM for one hour. The assay is classed as in vivo. As for the experimental part: as §1
In a third assay utilizing an Arabidopsis model, induction of adventitious root AR formation in intact plants was examined in the presence of 50 nM of tested compounds, which included 5 days incubation in the dark, followed by a shift to the light, according to procedures described by Sorin et al. [Plant Cell 2005, 17:1343-1359].
Conjugates prepared as described herein were evaluated in an Arabidopsis rooting model, according to procedures such as described hereinabove. Seeds were germinated and kept in the dark for 4 days. The etiolated seedlings were then incubated for 1 hour in 10 μM of each compound and then transferred to vertical MS medium-containing plates.

For assay [5], the system named is cuttings from mature Eucalyptus grandis trees. The assay is described as follows: rooting of cuttings from mature Eucalyptus grandis trees. The following applies: 100 μM compound by submerging or spraying, with 6000 ppm IBA. The assay is classed as in vivo.
The next assay relates to cannabis clone. In words: rooting of a difficult to root cannabis clone. The format is in vivo. The conditions noted are these: 6000 ppm IBA with 50 μM compound for 1 minute; 2 weeks; vs IBA alone. As for the experimental part: Cannabis is usually an easy to root plant. […] A relatively difficult to root cannabis clone was treated with 6000 ppm IBA or with a similar treatment combined with 50 μM of Compound 82 (4-CPA-L-Trp sodium salt) for 1 minute. Rooting was scored after 2 weeks.

Assay [6] relates to argan (Argania spinosa) cuttings. In words: rooting of argan cuttings. The assay is classed as in vivo. The following applies: after 1.5 months; compound with IBA, or IBA control. The method, then:
The ability of exemplary conjugates to promote rooting in plants which are recalcitrant to rooting (in addition to the results obtained with Eucalyptus grandis in Example 3) was examined using cuttings of argan (Argania spinosa) and jojoba (Simmondsia chinensis) in a commercial nursery (Shorashim). The argan and jojoba cuttings were treated with 100 μM of a conjugate (any of Compounds 10-1t) with 6000 ppm IBA. The common treatment T-8 (talc with 8000 ppm IBA and a fungicide) or 6000 ppm IBA (without conjugate) served as a control.
Exemplary conjugates were also tested for rooting the hard-to-root species of avocado (VC801 rootstock) and argan, according to procedures described hereinabove.

Assay [7] deals with avocado rootstock cuttings. In words: rooting of avocado rootstock cuttings. The format is in vivo. The procedure, abridged: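 Green cuttings of avocado rootstock (including hard-to-root VC801) were treated with auxin conjugates in the presence of IBA and scored for rooting.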
The test system of assay [8] is transgenic citrus rootstocks. In words: rooting of transgenic citrus rootstocks in tissue culture. The following applies: 0% without compound, data not shown. The format is in vivo. The text has this:
Compound 82 was also used to induce rooting of transgenic citrus rootstocks in tissue culture. It is well known that shoots created in tissue culture conditions following genetic modifications are typically difficult to root. Using Compound 82, 60% rooting was obtained, as compared to 0% without Compound 82 (data not shown).

Assay [9] has as its system Eucalyptus brachyphylla cuttings. The assay is described as follows: rooting of Eucalyptus brachyphylla cuttings. The following applies: K-IBA alone or with 100 μM compound. The format is in vivo. As for the experimental part: (§2) In order to investigate cloning of productive eucalyptus trees from cuttings, branches were excised from mature Eucalyptus x trabutii and Eucalyptus brachyphylla trees the field (in Kfar Pines, Israel)—selected based on their exceptional nectar production and honeybee attraction—placed in a humidified cooler box and brought to a climate-controlled greenhouse within 2 hours. Each cutting, 7 cm long, included three nodes with only two leaves remaining at its apical end. Two-thirds of each blade was excised to minimize evapotranspiration. The cutting bases were submerged for 1 minute in 6 grams/liter indole-3-butyric acid potassium salt (K-IBA), optionally supplemented with Compound 1s or 1t at a concentration of 100 μM. In addition, the leaves were sprayed with 100 μM of each compound in the presence of 0.05% Triton X-100 surfactant. Stock solutions of Compounds 1s and 1t were at a concentration of 100 mM in DMSO. The cuttings were planted in rooting medium containing peat, vermiculite and polystyrene flakes at a ratio of 1:2:3 respectively, on a heated rooting table under 90% humidity. Fungicides were applied to the rooting media on a weekly basis. Rooting percentage, number of roots per cutting and root length were measured after 1 and 2 weeks and after 1 and 2 months.

For assay [10], the system named is Eucalyptus x trabutii cuttings. In words: rooting of Eucalyptus x trabutii cuttings. The format is in vivo. The following applies: K-IBA alone or with 100 μM compound. The method, then:
as §2

Assay [11] relates to cuttings from mature Eucalyptus grandis trees. The conditions noted are these: literature value for this model (Abu-Abied et al. 2012); cited from earlier work.

For the compound `COC(=O)[C@@H](NC(=O)COc1ccc(Cl)cc1)C(C)C` [Compound 1p, 4-CPA-L-Val], the “percentage of adventitious root formation (rooting)” value in [1] (6000 ppm IBA and 100 μM conjugate by submersion of base plus spraying of foliage) is reported as 51±8%. The “appearance of the roots compared with IBA alone” value in [1] (6000 ppm IBA with 100 μM compound, submersion and spraying) is “appeared more branched”. Moreover, the “effect on root elongation relative to control, in words” value in the assay on Arabidopsis seedlings [2] (50 nM) was “inhibited root elongation relative to control”. In the assay on Arabidopsis seedlings [2] (50 nM, slight inhibition until day 3, complete from day 4), the “time course of root elongation inhibition” value is reported as “biphasic behavior”. Moreover, the “effect on AR formation in mung bean cuttings, in words” value with mung bean cuttings (tested at 2, 10 or 50 μM) was “induced rooting only at low concentrations”. For the same compound, the “effect on root tip and root elongation zone” value in the assay on DR5:venus marker is “loss of auxin activity at the root tip, and swelling of the root elongation zone”. The “effect on root growth of application to the shoot compared with application directly to the root” value with Arabidopsis seedlings [3] (24 hours on split dish) is reported as “even stronger”. In addition, in the assay on Arabidopsis seedlings [3] (split dish), the “adventitious root formation, exposure of shoots compared to exposure of roots” value is reported as “significantly more adventitious root formation” and the “lateral root formation, shoot application compared with root application” value is “inhibited lateral root formation more efficiently than application to roots”. Also, the “adventitious roots formed on average” value in the assay with Arabidopsis seedlings [4] was found to be 7±1.4. For the same compound, the “rooting in combination with IBA compared with IBA alone, in words” value in assay [5] is “at least as potent as that of their corresponding D-amino acid conjugates”.
`O=C(COc1ccc(Cl)cc1)N[C@@H](Cc1c[nH]c2ccccc12)C(=O)[O-].[Na+]` [Compound 82, 4-CPA-L-Trp sodium salt]: in the assay on cannabis clone, the “number of roots in cannabis, in words” value was “significant increase in number of roots” and the “rooting percentage in cannabis, in words” value is “small increase in the rooting percentage”. Moreover, in [6], the “rooting in argan clone YM3” value worked out at 80% and the “roots per cutting in argan clone YM3” value is recorded as “about 7”. Moreover, the “root architecture / root length of VC801 avocado cuttings compared to IBA control, in words” value in assay [7] (VC801 rootstock) is “considerably increased root length”. For the same compound, in assay [8], the “rooting of transgenic citrus rootstocks” value turned out to be 60%. Also, the “DR5 fluorescence (auxin activity), in words” value with DR5:venus marker is listed as “about as active as their non-water soluble methyl esters”.
On to `O=C(O)CCCc1c[nH]c2ccccc12` [IBA, indole-3-butyric acid, reference compound], for which, in assay [9], the “mean root number per cutting, E. brachyphylla” value was “about 4”. Besides, the “percentage of cuttings which exhibited rooting, stand-alone treatment” value in assay [1] (100 μM conjugate without IBA, or 28 mM (6000 ppm) IBA alone, submerging base or spraying, scored after 45-60 days) is recorded as 12%. For the same compound, the “rooting of cuttings, repeated experiment in a different season” value in assay [1] (Example 12 repeat: 6000 ppm IBA with 50 μM conjugate, or IBA control) is given as 10%. In addition, the “effect on root elongation relative to control, in words” value in the assay with Arabidopsis seedlings [2] (50 nM) is “no apparent inhibitory effect on root elongation”. Moreover, in the assay on Arabidopsis seedlings [2] (4 day old seedlings, 5 days on vertical plates), the “concentration required to inhibit root elongation” value is 1 to 10 µM. Further, in assay [6], the “rooting in argan clone YM3” value is reported as 50% and the “roots per cutting in argan clone YM3” value is reported as 2-3. In addition, the “rooting of VC801 avocado cuttings” value in assay [7] (VC801 rootstock, conjugate, or IBA control) was “about 35%”. Further, in assay [7] (vc51 rootstock, IBA), the “rooting rate of etiolated avocado branches” value is reported as 80% and the “rooting rate of green avocado branches” value is listed as 10%. In addition, the “mean root number per cutting, E. x trabutii” value in [10] is recorded as “about 5”. In the assay on mung bean cuttings (Table 1, water control 29.6), the “rooting of mung bean cuttings (number of roots per cutting)” value came out at 81.0. Also, in the assay on mung bean cuttings (Table 2), the “rooting of mung bean cuttings (number of roots per cutting)” value was determined as 101. The “root development in the presence of IBA potassium salt” value in [11] is given as 5-15%.
